How the values were obtained:
[1] = test system: H. lusitanicum; test: Ixodicidal activity on larvae, cellulose contact toxicity; type: in vivo, Hyalomma lusitanicum; conditions: 24 h contact with treated cellulose, Probit Analysis
Description: H. lusitanicum engorged female ticks were collected in central Spain (Finca La Garganta, Ciudad Real) from their host (deer) and maintained at 22-24 °C and 70% RH until oviposition and egg hatching. Resulting larvae (4-6 weeks old) were used for the bioassays (Galisteo Pretel, A. et al. Germacrone derivatives as new insecticidal and acaricidal compounds: a structure-activity relationship. Mol. 2019, 24). Briefly, 50 µL of test solution were added to 25 mg of powdered cellulose at different concentrations (initial concentration of 20 mg/ml) and the solvent was evaporated. For each test, three replicates with 20 larvae each were used. Dead ticks were counted after 24 h of contact with the treated cellulose at the environmental conditions described, using a binocular magnifying glass. The larvicidal activity data are presented as percent mortality corrected according to Schneider-Orelli's formula (Schneider-Orelli, O. Entomologisches praktikum: Einführung in die land- und forstwirtschaftliche Insektenkunde; aus dem entomologischen institut der eidgenössischen technischen hochschule in Zürich; Sauerländer, 1947). Effective lethal doses (LC50 and LC90, the concentration that kills 50% or 90% of the organisms, respectively) were calculated by Probit Analysis (5 serial dilutions, STATGRAPHICS Centurion XVI, version 16.1.02, Statgraphics Technologies, Inc, P.O. Box 134, The Plains, Virginia 20198, USA).

[2] = test system: Aspergillus niger; test: Antifungal activity, spore germination inhibition growth assay (MTT); type: cell-based; conditions: A. niger spores, 24 h incubation at 28 °C, 4 replicates
Description: (§1) The fungal species Aspergillus niger and Botrytis cinerea came from the fungal collection of institute de Ciencias Agrarias-CSIC, Madrid, Spain where they are maintained. The antifungal activity of the hydrolate extract and fractions were determined using a modified spore germination inhibition growth assay (Sainz, P. et al. Chemical composition and biological activities of Artemisia pedemontana subsp. assoana essential oils and hydrolate. Biomol. 2019, 9). The hydrolate extract or fractions were dissolved in dimethyl sulfoxide (DMSO) at 1% and evaluated at the final concentrations indicated.
(§2) The spore suspensions were 7.5 × 10^5 cells/mL in NaCl 0.9% for A. niger and 1 × 10^7 cells/mL in distilled water for B. cinerea. Amphotericin B (5 µg/mL) was used as a positive control. The samples and spore suspensions (4 replicates) were placed on 96-well plates and incubated for 24 h (28 °C for A. niger and 25 °C for B. cinerea). After the incubation process, 25 µL of an MTT (5 mg/mL) plus menadione (1 mM) solution in RMPIMOPS were added, the plates were incubated again for 3 h, the medium was removed, 200 µL of acidic isopropanol (95% isopropanol and 5% 1 M HCl) was added, and the plates were incubated for another 30 min. The absorbance was read at 490 nm in an Elisa reader. The IC50 values (the effective dose to give 50% inhibition) were calculated by a regression curve of % spore germination inhibition on log dose.

[3] = test system: Botrytis cinerea; test: as above; type: cell-based; conditions: B. cinerea spores, 24 h incubation at 25 °C, 4 replicates
Description: as §1, §2

Structure (SMILES) | LD50 (95% Confidence Limits) [1] | LD90 (95% Confidence Limits) [1] | LD50 (95% Confidence Limits) [2] | LD50 (95% Confidence Limits) [3]
C=CCSCC(C=O)=CC [Compound 1, 2-((allylthio)methyl)but-2-enal] | 8.42 (7.72-10.07) µg/mg | 15.62 (13.79-18.38) µg/mg | 78.07 (63.96-95.28)µg/mL | –
O=CC1=CCCSC1 [Compound 3, 5,6-dihydro-2H-thiopyran-3-carbaldehyde] | – | 3.57 (3.20-4.23) µg/mg | 16.96 (7.98-36.03) µg/mL | 8.79 (5.36-14.43) µg/mL
